# Patent publication US10166239B2, “Tropomyosin-related kinase (Trk) inhibitors” (Genzyme Corporation, priority 2013, dated 2019)
# Experiments:
# [1] = test system: Reactivated Peptidoglycan-Polysaccharide Knee Arthritis; experiment: Reactivated peptidoglycan-polysaccharide (PGPS) knee arthritis; assay type: in vivo, Male Lewis rats; conditions: for gait scores, second reactivation: intra-articular dose on day −7 (Triamcinolone 0.06 mg: day 15, 17, 18; test compound 1 mg: throughout second reactivation); for gait deficiency, second reactivation / gait scores and deficiency, first reactivation: intra-articular dose on day −7 (Triamcinolone 0.06 mg; test compound 1 mg); for gait deficiency, second reactivation: days 15, 17 and 18; for gait scores and deficiency, first reactivation: first reactivation (days 1-4)
# Excerpt: Male Lewis rats were acclimated to the testing facility for 7 days. The rats were housed in 5 per cage in shoe-box polycarbonate cages with wire tops, wood chip bedding and suspended food and water bottles. On day −21, the male Lewis rats were randomized into treatment groups by body weight. The rats were anesthetized and injected with peptidoglycan-polysaccharide (PGPS) into the right knee to induce PGPS arthritis. Arthritis was reactivated on days 0 and 14 by an IV tail injection of PGPS. […] The rats were weighed at baseline on days 0, 4, 14 and 18. […] Gait analysis was performed by applying ink to the ventral surface of the foot and documenting weight bearing during movement across paper. The animals were terminated at day 18. Right knees were removed, trimmed of extraneous tissue, and collected into 10% neutral buffered formalin. After two days in the formalin buffer and three days in 10% formic acid decalcifier, the knees were cut into two approximately equal halves in the frontal plane and processed for paraffin embedding and stained with T. Blue. Histological examinations were subsequently performed for bone resorption, inflammation, pannus and cartilage damage. […] Gait scores were analyzed using a Kruskal-Wallis test (non-parametric ANOVA) with Dunn's multiple comparison post-test. Histopathology scores were analyzed using a Kruskal-Wallis test (non-parametric ANOVA) with Dunn's multiple comparison post-test.
# [2] = test system: Monosodium Iodoacetate Induced Osteoarthritis; experiment: Monosodium iodoacetate (MIA) induced osteoarthritis; assay type: in vivo, Male Wistar rats
# Excerpt: Male Wistar rats were acclimated to the testing facility for 5 days. The rats were individually housed in micro-isolator shoe-box polycarbonate cages with cob bedding and water bottles. Dry pelleted food of known composition and nutritional components was provided ad libitum Animals were randomized by treatment type using an online random number generator. Each treatment group was assigned a number, entered into the random number generator, recorded then translated back to the associated treatment. All injections were given in the left leg unless the treatment indicated “Contralateral” in which case the injection was given in the right leg. Both legs were shaved on all animals at the time of the treatment injections to blind the test administrator. The rats were weighed the day prior to injection with monosodium iodoacetate (MIA), the agent used to induce osteoarthritis in the animals. The day of injection, rats from groups 2-8 received a subcutaneous (SC) dose of buprenorphine at least one hour prior to induction. […] Naïve animals were then placed in recovery. All other animals received an injection of MIA. In animals receiving MIA, the hind leg was flexed and an injection of MIA (25 μL) was injected into the intra-articular space using a 27 gauge ½ inch needle. Standard postoperative care was performed (twice daily for 48 hours). On Day 8 the test article was administered as described above. On Days −1, 7, 14, 21, 28, and 35 post-induction, weight bearing was assessed. A weight bearing scale was utilized using a plexiglass chamber to assess the amount of weight distributed in each hind limb. The animals were acclimated to the chamber for at least 5 minutes prior to testing and the weight distribution was recorded 5 times. The animals were terminated at day 36. Both stifles were collected from each animal; the skin was removed from the joint and the patella was removed while leaving as much of the fat pad intact with the joint. The stifle was placed in the appropriate cassette with rolled gauze to secure the stifle in the cassette and then placed into 4% Paraformaldehyde. These samples were examined histologically.
# [3] = Triamcinolone 0.06 mg intra-articular
Compound,"reduction of AUC values of gait scores and deficiency, each reactivation calculated separately [1, 3]","reduction of AUC values of gait scores and deficiency, summed [1, 3]","reductions in the AUC of knee caliper measurements [1, 3]","Knee caliper measurements ([1]; Triamcinolone 0.06 mg intra-articular, days 0, 2, 4, 16 and 18)","gait scores, second reactivation [1]","gait deficiency, second reactivation [1]","gait scores and deficiency, first reactivation [1]",AUC values of knee caliper measurements ([1]; 1 mg intra-articular),"reduction of AUC values of gait scores and deficiency, first reactivation ([1]; 1 mg intra-articular)","reduction of AUC values of gait scores and deficiency, second reactivation ([1]; 1 mg intra-articular)","Knee caliper measurements ([1]; 1 mg intra-articular, day 14 (just prior to the second reactivation))",efficacy (weight bearing) ([2]; 10 μg Contralateral injection),efficacy (weight bearing) ([2]; 10 μg Ipsilateral injection),efficacy (weight bearing) ([2]; 30 μg Contralateral injection),efficacy (weight bearing) ([2]; 30 μg Ipsilateral injection),"systemic pain relief (weight bearing) ([2]; 100 μg Contralateral injection, 1-4 weeks)",efficacy (weight bearing) ([2]; 100 μg Ipsilateral injection),"MIA/LRS compared with treatment (p<0.05) ([2]; Ipsilateral 100 μg and 30 μg, day 35)","body weight results ([2]; intra-articular 10, 30, 100 μg on Day 8)","Histopathology of the knee joint, adverse changes ([2]; stifles collected at day 36)"
"C[C@]12C=CC(=O)C=C1CC[C@H]1[C@@H]3C[C@@H](O)[C@](O)(C(=O)CO)[C@@]3(C)C[C@H](O)[C@@]12F [Triamcinolone, reference compound]",74-99%,88-92%,53-106%,significantly reduced,significantly reduced,significantly reduced,significantly reduced,–,–,–,–,–,–,–,–,–,–,–,–,–
"COc1ccc(COc2ccc(Cn3c(N)nc4cc(-c5cnn(C)c5)cnc43)cc2OC)cc1 [Ex. 3-15, 3-(3-Methoxy-4-((4-methoxybenzyl)oxy)benzyl)-6-(1-methyl-1H-pyrazol-4-yl)-3H-imidazo[4,5-b]pyridin-2-amine]",–,–,–,–,significantly reduced throughout the second reactivation,reductions in deficiency were significant,significant reductions,generally unaffected,92-93%,85-86%,significantly reduced on day 14,efficacy at 3 and 4 weeks following administration,efficacy was observed at 2 through 4 weeks following administration,efficacy at only the 3 week timepoint,effective throughout the four weeks following administration,did not show systemic pain relief at any timepoint,effective throughout the four weeks following administration,MIA/LRS was significantly worse,No adverse observations,no adverse changes
